Laboratory results: ChEMBL document CHEMBL1201862, “PubChem BioAssay data set” (2004)
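How tested: cells in 96-well plates exposed to compound for 48 hours at five concentrations. Here, GI50 denotes the concentration required for 50% inhibition of growth.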 Activity calls are given as the source filed them. Cut-off read from the data, not from the text of the source: active = GI50 up to about 1.1 µM and inactive = higher.

Columns and labels:
Assay in all cases: DTP human tumour cell line panel, 48 h
LXFL 529 = test system: LXFL 529
TK-10 = test system: TK-10
NCI-H522 = test system: NCI-H522
HCT-116 = test system: HCT-116
SNB-78 = test system: SNB-78
SK-OV-3 = test system: SK-OV-3
HCC 2998 = test system: HCC 2998
NCI-H460 = test system: NCI-H460
KM-20L2 = test system: KM-20L2
HT-29 = test system: HT-29
SK-MEL-5 = test system: SK-MEL-5
HCT-15 = test system: HCT-15
RXF 393 = test system: RXF 393
SN12C = test system: SN12C
NCI-H226 = test system: NCI-H226
SK-MEL-28 = test system: SK-MEL-28
DMS-273 = test system: DMS-273
M14 = test system: M14
CAKI-1 = test system: CAKI-1
OVCAR-3 = test system: OVCAR-3
Malme-3M = test system: Malme-3M
RPMI-8226 = test system: RPMI-8226
SK-MEL-2 = test system: SK-MEL-2
U-251 = test system: U-251
MOLT-4 = test system: MOLT-4
OVCAR-5 = test system: OVCAR-5
HOP-92 = test system: HOP-92
EKVX = test system: EKVX
UACC-62 = test system: UACC-62
M19-MEL = test system: M19-MEL
OVCAR-8 = test system: OVCAR-8
SF-268 = test system: SF-268
DMS-114 = test system: DMS-114
UO-31 = test system: UO-31
SNB-19 = test system: SNB-19
UACC-257 = test system: UACC-257
OVCAR-4 = test system: OVCAR-4
KM12 = test system: KM12
SW-620 = test system: SW-620
HOP-18 = test system: HOP-18
COLO 205 = test system: COLO 205
SF-295 = test system: SF-295
HOP-62 = test system: HOP-62
K562 = test system: K562
SNB-75 = test system: SNB-75
LOX IMVI = test system: LOX IMVI
ACHN = test system: ACHN
NCI-H23 = test system: NCI-H23
XF498 = test system: XF498
786-0 = test system: 786-0
IGROV-1 = test system: IGROV-1
SF-539 = test system: SF-539
A498 = test system: A498
A549 = test system: A549
SR = test system: SR
HL-60 = test system: HL-60
CCRF-CEM = test system: CCRF-CEM

Measured: GI50

NC(=S)N/N=C1/C(=O)N(c2ccc(Cl)cc2Cl)C(=O)C(=O)C1c1nc2ccccc2s1 (stereo not drawn)
> 100 µM: HCT-15
inactive: LXFL 529 > 100 µM | TK-10 > 100 µM | NCI-H522 > 100 µM | HCT-116 > 100 µM | SNB-78 > 100 µM | SK-OV-3 > 100 µM | HCC 2998 > 100 µM | NCI-H460 > 100 µM | KM-20L2 > 100 µM | HT-29 > 100 µM | SK-MEL-5 > 100 µM | RXF 393 > 100 µM | SN12C > 100 µM | NCI-H226 > 100 µM | SK-MEL-28 > 100 µM | DMS-273 > 100 µM | M14 > 100 µM | CAKI-1 > 100 µM | OVCAR-3 > 100 µM | Malme-3M > 100 µM | RPMI-8226 > 100 µM | SK-MEL-2 > 100 µM | U-251 > 100 µM | MOLT-4 52.1 µM | OVCAR-5 > 100 µM | HOP-92 > 100 µM | EKVX > 100 µM | UACC-62 > 100 µM | M19-MEL > 100 µM | OVCAR-8 > 100 µM | SF-268 > 100 µM | DMS-114 > 100 µM | UO-31 > 100 µM | SNB-19 > 100 µM | UACC-257 > 100 µM | OVCAR-4 > 100 µM | KM12 > 100 µM | SW-620 > 100 µM | HOP-18 98.4 µM | COLO 205 > 100 µM | SF-295 > 100 µM | HOP-62 > 100 µM | K562 > 100 µM | SNB-75 > 100 µM | LOX IMVI > 100 µM | ACHN > 100 µM | NCI-H23 > 100 µM | XF498 > 100 µM | 786-0 > 100 µM | IGROV-1 > 100 µM | SF-539 > 100 µM

O=C1C(c2ccccc2)=C(O)c2cccc3cccc1c23
inactive: LXFL 529 > 100 µM | TK-10 > 100 µM | NCI-H522 > 100 µM | HCT-116 > 100 µM | SNB-78 > 100 µM | SK-OV-3 > 100 µM | HCC 2998 > 100 µM | NCI-H460 > 100 µM | KM-20L2 > 100 µM | HT-29 > 100 µM | SK-MEL-5 > 100 µM | RXF 393 > 100 µM | SN12C > 100 µM | NCI-H226 88.9 µM | A498 > 100 µM | SK-MEL-28 > 100 µM | DMS-273 > 100 µM | M14 > 100 µM | CAKI-1 > 100 µM | OVCAR-3 47.4 µM | Malme-3M > 100 µM | RPMI-8226 > 100 µM | SK-MEL-2 > 100 µM | U-251 > 100 µM | MOLT-4 > 100 µM | A549 > 100 µM | OVCAR-5 > 100 µM | SR > 100 µM | HOP-92 29 µM | EKVX > 100 µM | UACC-62 > 100 µM | M19-MEL > 100 µM | OVCAR-8 > 100 µM | SF-268 > 100 µM | DMS-114 > 100 µM | UO-31 > 100 µM | SNB-19 > 100 µM | UACC-257 > 100 µM | OVCAR-4 > 100 µM | KM12 > 100 µM | HL-60 > 100 µM | CCRF-CEM > 100 µM | SW-620 > 100 µM | HOP-18 33.6 µM | COLO 205 > 100 µM | SF-295 > 100 µM | K562 > 100 µM | SNB-75 40.3 µM | LOX IMVI > 100 µM | ACHN > 100 µM | NCI-H23 > 100 µM | XF498 > 100 µM | 786-0 > 100 µM | IGROV-1 > 100 µM | SF-539 > 100 µM
> 100 µM: HCT-15
